Laboratory results: PubChem BioAssay (NCI)
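Each compound was tested at five concentrations against cells in 96-well plates for 48 hours. At the GI50, growth is halved. TGI denotes the concentration required for complete inhibition of growth.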

Experiments:
Test in all cases: growth of human tumour cells (NCI), 48 h; in the data active means GI50 below about 0.43 µM; inactive means the rest
HCC-2998 colon = system: HCC-2998 colon
MDA-MB-231 breast = system: MDA-MB-231 breast
DU-145 prostate = system: DU-145 prostate
HS 578T breast = system: HS 578T breast
HCT-116 colon = system: HCT-116 colon
T-47D breast = system: T-47D breast
SN12C renal = system: SN12C renal
NCI/ADR-RES ovarian = system: NCI/ADR-RES ovarian
SK-MEL-2 melanoma = system: SK-MEL-2 melanoma
KM12 colon = system: KM12 colon
NCI-H460 lung = system: NCI-H460 lung
TK-10 renal = system: TK-10 renal
BT-549 breast = system: BT-549 breast
U251 CNS = system: U251 CNS
OVCAR-3 ovarian = system: OVCAR-3 ovarian
EKVX NSCLC = system: EKVX NSCLC
HOP-92 NSCLC = system: HOP-92 NSCLC
OVCAR-4 ovarian = system: OVCAR-4 ovarian
PC-3 prostate = system: PC-3 prostate
SF-295 CNS = system: SF-295 CNS
HOP-62 NSCLC = system: HOP-62 NSCLC
OVCAR-5 ovarian = system: OVCAR-5 ovarian
K-562 leukemia = system: K-562 leukemia
UACC-257 melanoma = system: UACC-257 melanoma
IGROV1 ovarian = system: IGROV1 ovarian
ACHN renal = system: ACHN renal
NCI-H522 lung = system: NCI-H522 lung
SF-539 CNS = system: SF-539 CNS
RXF 393 renal = system: RXF 393 renal
M14 melanoma = system: M14 melanoma
SR leukemia = system: SR leukemia
SK-OV-3 ovarian = system: SK-OV-3 ovarian
SF-268 CNS = system: SF-268 CNS
MCF7 breast = system: MCF7 breast
SK-MEL-5 melanoma = system: SK-MEL-5 melanoma
SK-MEL-28 melanoma = system: SK-MEL-28 melanoma
786-0 renal = system: 786-0 renal
UACC-62 melanoma = system: UACC-62 melanoma
NCI-H23 lung = system: NCI-H23 lung
MDA-MB-435 = system: MDA-MB-435
OVCAR-8 ovarian = system: OVCAR-8 ovarian
A549 NSCLC = system: A549 NSCLC
HCT-15 colon = system: HCT-15 colon
RPMI-8226 leukemia = system: RPMI-8226 leukemia
LOX IMVI melanoma = system: LOX IMVI melanoma
SNB-19 CNS = system: SNB-19 CNS
HL-60(TB) leukemia = system: HL-60(TB) leukemia
SW-620 colon = system: SW-620 colon
COLO 205 colon = system: COLO 205 colon
CAKI-1 renal = system: CAKI-1 renal

N#Cc1nc2c(S(=O)(=O)c3ccccc3)c(N)n(Cc3ccc(Cl)cc3)c2nc1C#N
18.1 µM: TGI (UACC-62 melanoma)
41.7 µM: TGI (BT-549 breast)
23.4 µM: TGI (HS 578T breast)
41 µM: TGI (SNB-19 CNS)
inactive: GI50 (HCC-2998 colon) 3.6 µM | GI50 (MDA-MB-231 breast) 5.08 µM | GI50 (DU-145 prostate) 15 µM | GI50 (HS 578T breast) 7.08 µM | GI50 (HCT-116 colon) 17.9 µM | GI50 (T-47D breast) 15.5 µM | GI50 (SN12C renal) 5.14 µM | GI50 (SK-MEL-2 melanoma) 32.6 µM | GI50 (KM12 colon) 17.1 µM | GI50 (NCI-H460 lung) 10.9 µM | GI50 (TK-10 renal) 12.2 µM | GI50 (BT-549 breast) 10.8 µM | GI50 (U251 CNS) 8.09 µM | GI50 (OVCAR-3 ovarian) 12 µM | GI50 (EKVX NSCLC) 19.1 µM | GI50 (HOP-92 NSCLC) 12.3 µM | GI50 (OVCAR-4 ovarian) 17.8 µM | GI50 (PC-3 prostate) 18.3 µM | GI50 (SF-295 CNS) 14.7 µM | GI50 (HOP-62 NSCLC) > 50 µM | GI50 (OVCAR-5 ovarian) 13 µM | GI50 (K-562 leukemia) > 50 µM | GI50 (UACC-257 melanoma) 33.1 µM | GI50 (IGROV1 ovarian) 9.65 µM | GI50 (ACHN renal) 4.23 µM | GI50 (NCI-H522 lung) 7.18 µM | GI50 (SF-539 CNS) 19.4 µM | GI50 (RXF 393 renal) 2.45 µM | GI50 (M14 melanoma) 20.9 µM | GI50 (SR leukemia) 9.72 µM | GI50 (SK-OV-3 ovarian) 9.9 µM | GI50 (SF-268 CNS) 9.14 µM | GI50 (MCF7 breast) 7.38 µM | GI50 (SK-MEL-5 melanoma) 11.5 µM | GI50 (SK-MEL-28 melanoma) 15.3 µM | GI50 (786-0 renal) 7.08 µM | GI50 (UACC-62 melanoma) 7.51 µM | GI50 (NCI-H23 lung) 6.46 µM | GI50 (MDA-MB-435) 19.4 µM | GI50 (OVCAR-8 ovarian) 8.51 µM | GI50 (A549 NSCLC) 12.1 µM | GI50 (HCT-15 colon) 24.2 µM | GI50 (RPMI-8226 leukemia) 14.1 µM | GI50 (LOX IMVI melanoma) 0.932 µM | GI50 (SNB-19 CNS) 13.8 µM | GI50 (HL-60(TB) leukemia) 47.3 µM | GI50 (SW-620 colon) 17 µM | GI50 (COLO 205 colon) 17.8 µM | GI50 (CAKI-1 renal) 26.7 µM
46.4 µM: TGI (T-47D breast)
14.9 µM: TGI (MDA-MB-231 breast)
29.3 µM: TGI (SK-OV-3 ovarian)
10.3 µM: TGI (NCI/ADR-RES ovarian)
47.6 µM: TGI (OVCAR-8 ovarian)
15.6 µM: TGI (786-0 renal)
26.5 µM: TGI (TK-10 renal)
> 50 µM: TGI (DU-145 prostate) | TGI (HCT-116 colon) | TGI (SK-MEL-2 melanoma) | TGI (KM12 colon) | TGI (NCI-H460 lung) | TGI (OVCAR-3 ovarian) | TGI (EKVX NSCLC) | TGI (OVCAR-4 ovarian) | TGI (PC-3 prostate) | TGI (SF-295 CNS) | TGI (HOP-62 NSCLC) | TGI (OVCAR-5 ovarian) | TGI (K-562 leukemia) | TGI (UACC-257 melanoma) | TGI (NCI-H522 lung) | TGI (SF-539 CNS) | TGI (M14 melanoma) | TGI (SR leukemia) | TGI (MCF7 breast) | TGI (SK-MEL-5 melanoma) | TGI (SK-MEL-28 melanoma) | TGI (MDA-MB-435) | TGI (HCT-15 colon) | TGI (RPMI-8226 leukemia) | TGI (HL-60(TB) leukemia) | TGI (SW-620 colon) | TGI (COLO 205 colon) | TGI (CAKI-1 renal)
10.8 µM: TGI (HCC-2998 colon)
13.9 µM: TGI (RXF 393 renal)
18.3 µM: TGI (U251 CNS)
active: GI50 (NCI/ADR-RES ovarian) 0.424 µM
37.6 µM: TGI (SF-268 CNS)
46.2 µM: TGI (HOP-92 NSCLC)
13 µM: TGI (ACHN renal)
41.3 µM: TGI (A549 NSCLC)
4.17 µM: TGI (LOX IMVI melanoma)
42.3 µM: TGI (IGROV1 ovarian)
17.6 µM: TGI (SN12C renal)
38.6 µM: TGI (NCI-H23 lung)
